The source of these data is ChEMBL document CHEMBL5154811, “Discovery of SPH5030, a Selective, Potent, and Irreversible Tyrosine Kinase Inhibitor for HER2-Amplified and HER2-Mutant Cancer Treatment” (J Med Chem, 2022).

Data set [1] has as its target Receptor tyrosine-protein kinase erbB-2 (Homo sapiens, UniProt P04626). The experiment in a line: Inhibition of wild type human GST-tagged HER2 (676 to end residues) expressed in baculovirus infected Sf9 cells incubated for 30 mins in presence of ATP by HTRF analysis.
Data set [2] has as its target Epidermal growth factor receptor (Homo sapiens, UniProt P00533). The experiment in a line: Inhibition of wild type human N-terminal GST tagged EGFR (669 to 1210 residues) expressed in Sf21 insect cells incubated for 30 mins in presence of ATP by HTRF analysis.
The test system of another data set is BT-474. The experiment in a line: Antiproliferative activity against human BT-474 cells assessed as inhibition of cell growth incubated for 72 hrs by Celltiter-Glo assay. The format is functional, cell-based. As to conditions: BT-474, 72 h.
Data set [3] can be described thus: Metabolic stability in human liver microsomes assessed as half life at 1 uM preincubated for 5 mins followed by NADPH addition by LC-MS/MS analysis. The format is ADME, Microsome.
Data set [4] can be described thus: Metabolic stability in human liver microsomes assessed as intrinsic clearance at 1 uM preincubated for 5 mins followed by NADPH addition by LC-MS/MS analysis. The format is ADME, Microsome. Particulars: read-out: CLH.
For the next data set, the system named is NCI-N87. The experiment in a line: Antiproliferative activity against human NCI-N87 cells assessed as inhibition of cell growth incubated for 72 hrs by Celltiter-Glo assay. Particulars: NCI-N87, 72 h. The format is functional, cell-based.
Data set [5] can be described thus: Clearance in ICR mouse at 3 mg/kg, iv measured upto 1440 mins by LC/MS/MS analysis. As to conditions: in vivo. The format is ADME, organism-based.
The nature of data set [6]: Clearance in Sprague-Dawley rat at 3 mg/kg, iv measured upto 1440 mins by LC/MS/MS analysis. The format is ADME, organism-based. Particulars: in vivo.
The nature of data set [7]: Half life in ICR mouse at 3 mg/kg, iv measured upto 1440 mins by LC/MS/MS analysis. The format is ADME, organism-based. Particulars: in vivo.
Data set [8] can be described thus: Volume of distribution at steady state in ICR mouse at 3 mg/kg, iv measured upto 1440 mins by LC/MS/MS analysis. The format is ADME, organism-based. As to conditions: in vivo, read-out: Vdss.
A short description of data set [9]: Cmax in ICR mouse at 10 mg/kg, po measured upto 1440 mins by LC/MS/MS analysis. The format is ADME, organism-based. Set-up: dose 10 mg/kg, time < 1440 min, route po. Particulars: in vivo.
Data set [10] can be described thus: Tmax in ICR mouse at 10 mg/kg, po measured upto 1440 mins by LC/MS/MS analysis. As to conditions: in vivo. The format is ADME, organism-based.
The nature of data set [11]: AUC (0 to t) in ICR mouse at 10 mg/kg, po measured upto 1440 mins by LC/MS/MS analysis. Set-up: time < 1440 min, dose 10 mg/kg, route po. As to conditions: in vivo. The format is ADME, organism-based.
The nature of data set [12]: Half life in ICR mouse at 10 mg/kg, po measured upto 1440 mins by LC/MS/MS analysis. The format is ADME, organism-based. Particulars: in vivo.
Data set [13] in a line: Oral bioavailability in ICR mouse at 10 mg/kg measured upto 1440 mins by LC/MS/MS analysis. Particulars: in vivo. The format is ADME, organism-based.
The nature of data set [14]: Half life in Sprague-Dawley rat at 3 mg/kg, iv measured upto 1440 mins by LC/MS/MS analysis. The format is ADME, organism-based. Particulars: in vivo.
The nature of data set [15]: Volume of distribution at steady state in Sprague-Dawley rat at 3 mg/kg, iv measured upto 1440 mins by LC/MS/MS analysis. The format is ADME, organism-based. Particulars: in vivo, read-out: Vdss.
Data set [16] can be described thus: Cmax in Sprague-Dawley rat at 10 mg/kg, po measured upto 1440 mins by LC/MS/MS analysis. The format is ADME, organism-based. Particulars: in vivo. Set-up: time < 1440 min, dose 10 mg/kg, route po.
Data set [17] is described as follows: Tmax in Sprague-Dawley rat at 10 mg/kg, po measured upto 1440 mins by LC/MS/MS analysis. The format is ADME, organism-based. As to conditions: in vivo.
A short description of data set [18]: AUC (0 to t) in Sprague-Dawley rat at 10 mg/kg, po measured upto 1440 mins by LC/MS/MS analysis. Set-up: dose 10 mg/kg, time < 1440 min, route po. As to conditions: in vivo. The format is ADME, organism-based.
Data set [19] is described as follows: Half life in Sprague-Dawley rat at 10 mg/kg, po measured upto 1440 mins by LC/MS/MS analysis. The format is ADME, organism-based. Particulars: in vivo.
Data set [20] in a line: Oral bioavailability in Sprague-Dawley rat at 10 mg/kg measured upto 1440 mins by LC/MS/MS analysis. The format is ADME, organism-based. Particulars: in vivo.

Epidermal growth factor receptor, sequence (P00533 whole entry, the tested form may be a part): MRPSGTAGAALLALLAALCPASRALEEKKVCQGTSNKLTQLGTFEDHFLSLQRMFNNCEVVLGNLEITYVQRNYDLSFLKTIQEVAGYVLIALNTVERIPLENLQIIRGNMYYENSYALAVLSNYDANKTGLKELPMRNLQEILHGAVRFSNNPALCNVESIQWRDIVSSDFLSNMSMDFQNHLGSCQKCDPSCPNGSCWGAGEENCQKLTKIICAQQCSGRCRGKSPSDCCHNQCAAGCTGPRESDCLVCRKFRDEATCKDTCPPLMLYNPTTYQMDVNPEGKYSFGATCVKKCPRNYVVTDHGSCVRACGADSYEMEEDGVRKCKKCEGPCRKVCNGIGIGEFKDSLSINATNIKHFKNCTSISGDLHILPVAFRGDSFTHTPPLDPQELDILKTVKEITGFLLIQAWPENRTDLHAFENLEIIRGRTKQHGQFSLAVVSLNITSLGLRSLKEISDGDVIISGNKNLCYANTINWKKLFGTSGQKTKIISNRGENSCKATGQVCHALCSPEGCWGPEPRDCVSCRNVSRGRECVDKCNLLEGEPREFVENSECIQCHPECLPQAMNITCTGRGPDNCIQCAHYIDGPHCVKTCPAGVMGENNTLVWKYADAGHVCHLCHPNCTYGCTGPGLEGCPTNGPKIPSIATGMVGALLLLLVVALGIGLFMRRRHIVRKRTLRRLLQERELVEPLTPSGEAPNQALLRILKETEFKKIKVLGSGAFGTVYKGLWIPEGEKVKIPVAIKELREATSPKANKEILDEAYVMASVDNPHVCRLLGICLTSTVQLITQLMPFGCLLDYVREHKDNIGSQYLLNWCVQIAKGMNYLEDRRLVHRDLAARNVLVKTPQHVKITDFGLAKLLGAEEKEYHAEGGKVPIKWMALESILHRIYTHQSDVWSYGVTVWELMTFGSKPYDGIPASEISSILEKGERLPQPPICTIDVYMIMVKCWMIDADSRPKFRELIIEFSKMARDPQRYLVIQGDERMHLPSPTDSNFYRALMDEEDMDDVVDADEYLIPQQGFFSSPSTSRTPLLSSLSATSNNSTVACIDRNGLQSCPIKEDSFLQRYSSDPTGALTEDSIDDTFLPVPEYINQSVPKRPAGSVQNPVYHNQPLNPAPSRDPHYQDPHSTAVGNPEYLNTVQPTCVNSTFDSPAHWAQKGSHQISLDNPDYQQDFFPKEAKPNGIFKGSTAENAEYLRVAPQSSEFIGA
Receptor tyrosine-protein kinase erbB-2, sequence (P04626 whole entry, the tested form may be a part): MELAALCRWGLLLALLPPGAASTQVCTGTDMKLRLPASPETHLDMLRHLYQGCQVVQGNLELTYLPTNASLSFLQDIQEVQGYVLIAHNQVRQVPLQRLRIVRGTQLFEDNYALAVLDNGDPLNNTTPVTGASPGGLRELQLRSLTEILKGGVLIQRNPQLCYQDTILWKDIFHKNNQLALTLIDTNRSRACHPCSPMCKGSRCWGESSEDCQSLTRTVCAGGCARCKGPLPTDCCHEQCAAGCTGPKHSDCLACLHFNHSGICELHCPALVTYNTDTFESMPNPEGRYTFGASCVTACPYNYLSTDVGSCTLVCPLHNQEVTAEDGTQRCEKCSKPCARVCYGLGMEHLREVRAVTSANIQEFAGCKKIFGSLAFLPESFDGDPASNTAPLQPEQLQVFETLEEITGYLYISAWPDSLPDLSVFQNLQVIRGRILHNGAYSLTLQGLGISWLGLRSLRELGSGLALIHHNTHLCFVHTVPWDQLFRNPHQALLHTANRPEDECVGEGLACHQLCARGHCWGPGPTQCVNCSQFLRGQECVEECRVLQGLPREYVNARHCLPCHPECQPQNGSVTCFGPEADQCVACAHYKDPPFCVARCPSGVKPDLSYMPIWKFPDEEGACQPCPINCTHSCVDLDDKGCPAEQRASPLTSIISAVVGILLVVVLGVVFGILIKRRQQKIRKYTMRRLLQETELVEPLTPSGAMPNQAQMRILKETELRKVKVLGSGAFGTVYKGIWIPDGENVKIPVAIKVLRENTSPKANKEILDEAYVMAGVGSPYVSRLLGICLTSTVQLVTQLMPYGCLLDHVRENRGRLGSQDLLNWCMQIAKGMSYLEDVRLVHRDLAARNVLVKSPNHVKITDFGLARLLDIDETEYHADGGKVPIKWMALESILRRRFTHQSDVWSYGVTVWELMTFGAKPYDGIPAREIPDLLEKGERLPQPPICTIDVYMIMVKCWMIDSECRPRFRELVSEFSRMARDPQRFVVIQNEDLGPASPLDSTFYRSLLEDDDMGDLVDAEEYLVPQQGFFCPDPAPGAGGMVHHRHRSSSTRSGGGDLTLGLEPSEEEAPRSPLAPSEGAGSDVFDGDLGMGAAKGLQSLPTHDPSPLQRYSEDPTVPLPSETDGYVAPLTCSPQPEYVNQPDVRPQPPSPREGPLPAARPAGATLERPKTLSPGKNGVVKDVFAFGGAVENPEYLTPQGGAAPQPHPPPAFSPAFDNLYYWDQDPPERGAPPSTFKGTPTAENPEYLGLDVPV

`CCOc1cc2ncnc(Nc3ccc(Oc4cc5nncn5cn4)c(C)c3)c2cc1NC(=O)/C(F)=C\[C@H]1CCCN1C`: the IC50 in data set [1] was determined as 7.3 nM; in [2], 86.3 nM; in the data set on BT-474, 3.36 nM. Also, the half-life at 1 µM in data set [3] stood at 0.954 h. The microsomal CLint at 1 µM in data set [4] stood at 24.2 µL/min/mg.
Take `C=CC(=O)Nc1cc2c(Nc3ccc(Oc4cc5nncn5cn4)c(C)c3)ncnc2cc1OCC`: the IC50 in data set [1] is 1.93 nM; in data set [2], 1.47 nM; with NCI-N87 it was 51.9 nM; in the data set on BT-474 it was 4.69 nM.
The like results for `Cc1cc(Nc2ncnc3ccc(NC(=O)/C=C/CN(C)C)cc23)ccc1Oc1cc2nncn2cn1` were, in that order, 2.85 nM, 2.13 nM, 11.7 nM and 8.05 nM.
`CCOc1cc2ncnc(Nc3ccc(Oc4cc5nncn5cn4)c(C)c3)c2cc1NC(=O)/C(F)=C/[C@@H]1CCCN1C`: the IC50 in [1] came out at 3.38 nM; in [2], 32.1 nM; in the data set on NCI-N87, 1.55 nM; in the data set with BT-474 it was 2.65 nM. For the same compound, the half-life at 1 µM in [3] was found to be 1.37 h. The microsomal CLint at 1 µM in data set [4] was found to be 16.9 µL/min/mg.
Take `Cc1cc(Nc2ncnc3cc(O)c(NC(=O)/C=C/[C@H]4CCCN4C)cc23)ccc1Oc1cc2nccn2cn1`: the IC50 stood at 1.06 nM in data set [1], 1.11 nM in data set [2], 41.7 nM in the data set on NCI-N87 and 5.59 nM in the data set with BT-474.
The like results for `Cc1cc(Nc2ncnc3ccc(NC(=O)/C=C/[C@H]4CCCN4C)cc23)ccc1Oc1cc2nncn2cn1` were, in that order, 1.4 nM, 1.19 nM, 2.17 nM and 3.06 nM.
The corresponding values for `Cc1cc(Nc2c(C#N)cnc3ccc(NC(=O)/C=C/CN(C)C)cc23)ccc1Oc1cc2nncn2cn1` are 62.3 nM, 20.7 nM, 19.2 nM and 14.9 nM.
The like results for `Cc1cc(Nc2ncnc3cc(O)c(NC(=O)/C=C/[C@H]4CCCN4C)cc23)ccc1Oc1ccn2cnnc2c1` were, in that order, 6.31 nM, 22.7 nM, 32.9 nM and 26.8 nM.
Regarding `CCOc1cc2ncnc(Nc3ccc(Oc4cc5nncn5cn4)c(C)c3)c2cc1NC(=O)/C(F)=C\[C@@H]1CCCN1C`, the IC50 in data set [1] stood at 3.68 nM; in [2] it was 25.9 nM; with NCI-N87, 0.56 nM; with BT-474 it was 1.75 nM. For the same compound, the clearance in data set [5] is 90 mL/min/kg; in data set [6], 80.8 mL/min/kg. In addition, the half-life is 1.16 h in [7], 0.87 h in data set [12], 6.62 h in [14] and 4.14 h in data set [19]. Besides, the Vd came out at 4.49 L/kg in data set [8] and 23.6 L/kg in data set [15]. Further, the Cmax turned out to be 290 ng/mL in data set [9] and 30 ng/mL in data set [16]. In addition, the results for the Tmax in data set [10] and in data set [17] were 0.42 h and 2.67 h, respectively. Also, the AUC(0-t) at 24 h in data set [11] came to 630 ng·h/mL; in data set [18], 170 ng·h/mL. Besides, the bioavailability in [13] was 34.4%; in data set [20] it was 13.7%.
Consider `C=C(F)C(=O)Nc1cc2c(Nc3ccc(Oc4cc5nncn5cn4)c(C)c3)ncnc2cc1OCC`, for which the IC50 in data set [1] was 4.05 nM; in data set [2], 9.6 nM; in the data set on NCI-N87 it was 6.56 nM; in the data set on BT-474 it was 3.88 nM. Besides, the half-life at 1 µM in data set [3] worked out at 0.578 h. For the same compound, in data set [4], the microsomal CLint at 1 µM stood at 40 µL/min/mg.
In the case of `CCOc1cc2ncnc(Nc3ccc(Oc4cc5nncn5cn4)c(C)c3)c2cc1NC(=O)/C=C/[C@H]1CCCN1C`, the IC50 is 1.67 nM in data set [1], 1.36 nM in [2], 1.12 nM with NCI-N87 and 2.13 nM in the data set with BT-474. For the same compound, in [3], the half-life at 1 µM stood at 12.9 h. The microsomal CLint at 1 µM in data set [4] stood at 1.81 µL/min/mg. The clearance in [5] is 22 mL/min/kg; in data set [6] it was 55.5 mL/min/kg. For the same compound, the half-life in data set [7] is 4.38 h; in [12], 3.07 h; in [14], 2.09 h; in data set [19], 4.32 h. Also, the Vd is 2.79 L/kg in data set [8] and 10.6 L/kg in data set [15]. Also, the Cmax is 400 ng/mL in data set [9] and 280 ng/mL in data set [16]. For the same compound, the Tmax was 1.67 h in data set [10] and 4 h in data set [17]. The figures for the AUC(0-t) at 24 h in [11] and in data set [18] were 1700 ng·h/mL and 2170 ng·h/mL, respectively. For the same compound, the values for the bioavailability in data set [13] and in data set [20] were 22.6% and 47.5%, respectively.
`Cc1cc(Nc2ncnc3cc(O)c(NC(=O)/C=C/[C@H]4CCCN4C)cc23)ccc1Oc1cnc2ccnn2c1`: the IC50 in data set [1] was 2.41 nM; in data set [2], 1.03 nM; in the data set on NCI-N87 it was 1.9 nM; in the data set with BT-474, 3.11 nM.
The like results for `Cc1cc(Nc2ncnc3cc(O)c(NC(=O)/C=C/[C@H]4CCCN4C)cc23)ccc1Oc1ccn2ccnc2c1` were, in that order, 1.7 nM, 2.31 nM, 4.55 nM and 4.63 nM.
With `Cc1cc(Nc2ncnc3cc(O)c(NC(=O)/C=C/[C@H]4CCCN4C)cc23)ccc1Oc1ccn2ncnc2c1`, the IC50 in data set [1] turned out to be 1.43 nM; in [2], 2.8 nM; in the data set on NCI-N87, 2.65 nM; with BT-474, 2.4 nM.
Turning to `COCC(=O)NC/C=C/c1ccc2ncc(C#N)c(Nc3ccc(Oc4cc5nncn5cn4)c(C)c3)c2c1`, the IC50 in [2] was determined as 1830 nM; in the data set on NCI-N87, 441 nM; with BT-474 it was 369 nM.
Turning to `Cc1cc(Nc2ncnc3cc(O)c(NC(=O)/C=C/[C@H]4CCCN4C)cc23)ccc1Oc1ccc2nccn2c1`, the IC50 in data set [1] was determined as 6.42 nM; in data set [2] it was 2.32 nM; with NCI-N87 it was 4.08 nM; in the data set on BT-474, 5.22 nM.
For `Cc1cc(Nc2ncnc3cc(O)c(NC(=O)/C=C/[C@H]4CCCN4C)cc23)ccc1Oc1cnn2cnnc2c1`, the IC50 in data set [1] was 16 nM; in data set [2], 11.8 nM; with NCI-N87 it was 28.3 nM; in the data set with BT-474 it was 20.8 nM.
With `COCC(=O)NC/C=C/c1ccc2ncnc(Nc3ccc(Oc4cc5nncn5cn4)c(C)c3)c2c1`, the IC50 in data set [1] was 2.55 nM; in data set [2], 110 nM; with NCI-N87, 80.7 nM; in the data set with BT-474, 50 nM.
With `Cc1cc(Nc2c(C#N)cnc3ccc(NC(=O)/C=C/[C@H]4CCCN4C)cc23)ccc1Oc1cc2nncn2cn1`, the IC50 in data set [1] was found to be 10.8 nM; in [2], 3.13 nM; in the data set with NCI-N87, 6.7 nM; with BT-474 it was 7.44 nM.
